# Reference: patent US20230114728A1 (Venatorx Pharmaceuticals, Inc., priority 2019, published 2023)
# Like-named read-outs stand apart in the source and are kept apart here.
# Assays:
# Test in all cases: Broth microdilution MIC in iron-depleted CAMHB (IDM)
# Format in all cases: cell-based
# P. aeruginosa CDC-0110 = conditions: Pseudomonas aeruginosa, CDC0110, read-out: Minimum Inhibitory Concentration, P. aeruginosa CDC-0110
# Method: (§1) To determine the ability of test compounds to inhibit the growth bacterial strains under conditions of iron-depletion, classic cell based broth microdilution minimum inhibitory concentration (MIC) assays were employed. MIC assays are performed according to CLSI methods except where otherwise noted (CLSI, 2018 and CLSI, 2019). The reference type strain E. coli ATCC 25922 was used to determine the ability of the PBP inhibitors to inhibit the growth of Enterobacteriaceae. Wild-type P. aeruginosa ATCC 27853, A. baumannii ATCC 17978 and A. baumannii ATCC 19606, along with the hyper-permeable P. aeruginosa ATCC 35151, an engineered efflux pump-compromised strain of P. aeruginosa (ΔmexAB-oprM), and an engineered efflux-pump compromised strain of A. baumannii IL123 (ABΔ3-ARAEcPore) were used to determine the ability of PBP inhibitors to penetrate the outer membrane of P. aeruginosa and A. baumannii and assess antibacterial activity against these important gram-negative organisms.
# (§2) Briefly, cryo-preserved bacterial cultures of challenge strains are streaked for isolation on appropriate agar medium, in this case cation-adjusted Mueller Hinton agar. Following incubation to allow growth of the colonies, plates are sealed with parafilm and stored refrigerated for up to two weeks. For preparation of assay inoculum and to ensure low variability, at least 5 colonies are picked from the agar plates with an inoculating loop and aseptically transferred to a culture tube containing 3 mL of iron-depleted cation-adjusted Mueller Hinton broth (IDM)—see below for IDM preparation. The broth culture is grown for 3-5 hours at 37° C. with shaking at 200 rpm. Meanwhile, 2-fold serial dilutions of test compounds are conducted in a 96-well plate with a final volume of 75 μL per well at 2-fold the final desired concentration. After the dilution plates are set up the growing cultures are then diluted in a cuvette containing IDM and the optical density is measured at 600 nm. The inoculum is diluted such that 75 μL of this culture in IDM results in a starting bacterial concentration of 2-8×10^5 CFU/mL when added to the dilution plates. The plates are incubated for 16-20 hours for Enterobacteriaceae and Pseudomonas and 20-24 hours for Acinetobacter at 37° C. The MIC values are read visually as the lowest concentration well with no bacterial growth.
# (§3) Method for Iron-Depleted Cation-Adjusted Mueller Hinton Broth (IDM) Preparation:
# (§4) • Prepare cation-adjusted Mueller Hinton broth as per the manufacturer's recommendations and autoclave. • Add 100 g/L Chelex 100 resin, cover with foil and incubate with stirring for 2 hours • Remove Chelex 100 resin by filtration with 0.45 μm filter flask • Add the following back to the medium: • CaCl2 dihydrate: 82.5 mg/L • MgCl2 hexahydrate: 94.1 mg/L • ZnSO4: 10 μM • Adjust pH of medium to 7.3 with 5 N HCl • Sterilize using a 0.22 µm filter flask
# [1] = tested on: A. baumannii CDC-0083 producing NDM-1, PER-7, OXA-23, and OXA-69; conditions: Acinetobacter baumannii, read-out: Minimum Inhibitory Concentration, CDC-0083
# Method: (§5) Example IV: In Vitro Antibacterial Assays in Iron-Depleted Cation-Adjusted Mueller-Hinton Broth
# as §1, §2, §3, §4
# [2] = tested on: P. aeruginosa CDC-0054 producing VIM-4, OXA-50, and PAO; conditions: Pseudomonas aeruginosa, read-out: Minimum Inhibitory Concentration, P. aeruginosa CDC-0054
# Method: as §5, §1, §2, §3, §4
# P. aeruginosa ATCC 27853 = conditions: Pseudomonas aeruginosa
# Method: as §5, §1, §2, §3, §4
# [3] = tested on: A. baumannii IL123 (ABΔ3-ARAEcPore); conditions: Acinetobacter baumannii, read-out: Minimum Inhibitory Concentration, IL-2123
# Method: as §5, §1, §2, §3, §4
# A. baumannii ATCC 17978 = conditions: Acinetobacter baumannii
# Method: as §5, §1, §2, §3, §4
# [4] = tested on: A. baumannii CDC-0036 OXA-65, and OXA-24; conditions: Acinetobacter baumannii, read-out: Minimum Inhibitory Concentration, CDC-0036
# Method: as §5, §1, §2, §3, §4
# [5] = tested on: A. baumannii CDC-0033 producing NDM-1, and OXA-94; conditions: Acinetobacter baumannii, read-out: Minimum Inhibitory Concentration, CDC-0033
# Method: as §5, §1, §2, §3, §4
# [6] = tested on: P. aeruginosa CDC-0090 producing KPC-5, OXA-50, and PAO; conditions: Pseudomonas aeruginosa, read-out: Minimum Inhibitory Concentration, P. aeruginosa CDC-0090
# Method: as §5, §1, §2, §3, §4
# A. baumannii ATCC 19606 = conditions: Acinetobacter baumannii
# Method: as §5, §1, §2, §3, §4
# [7] = tested on: P. aeruginosa CDC-0095 producing OXA-50, and PAO; conditions: Pseudomonas aeruginosa, read-out: Minimum Inhibitory Concentration, P. aeruginosa CDC-0095
# Method: as §5, §1, §2, §3, §4
# P. aeruginosa ATCC 35151 = conditions: Pseudomonas aeruginosa, ATCC35151; iron-depleted MHB (IDM); hyper-permeable strain; read-out: Minimum Inhibitory Concentration, P. aeruginosa ATCC 35151
# Method: as §5, §1, §2, §3, §4
# [8] = tested on: P. aeruginosa (ΔmexAB-oprM); conditions: Pseudomonas aeruginosa, read-out: Minimum Inhibitory Concentration, P. aeruginosa ΔmexAB-OprM
# Method: as §5, §1, §2, §3, §4
# [9] = tested on: A. baumannii CDC-0045 producing TEM-1D, OXA-23, and OXA-69; conditions: Acinetobacter baumannii, read-out: Minimum Inhibitory Concentration, CDC-0045
# [10] = ATCC27853, read-out: Minimum Inhibitory Concentration, P. aeruginosa ATCC 27853
# [11] = ATCC17978, read-out: Minimum Inhibitory Concentration, ATCC 17978
# [12] = ATCC19606, read-out: Minimum Inhibitory Concentration, ATCC 19606
Structure (SMILES),MIC (P. aeruginosa CDC-0110),MIC [1],MIC [2],"MIC (P. aeruginosa ATCC 27853; ATCC27853, iron-depleted MHB (IDM), read-out: Minimum Inhibitory Concentration, P. aeruginosa ATCC 27853)",MIC [3],"MIC (A. baumannii ATCC 17978; ATCC17978, A. baumannii ATCC 17978, iron-depleted MHB (IDM), read-out: Minimum Inhibitory Concentration, ATCC 17978)",MIC [4],MIC [5],MIC [6],"MIC (A. baumannii ATCC 19606; ATCC19606, A. baumannii ATCC 19606, iron-depleted MHB (IDM), read-out: Minimum Inhibitory Concentration, ATCC 19606)",MIC [7],MIC (P. aeruginosa ATCC 35151),MIC [8],MIC [9],MIC (P. aeruginosa ATCC 27853; [10]),MIC (A. baumannii ATCC 17978; [11]),MIC (A. baumannii ATCC 19606; [12])
"NCCCN1CCN(C(=O)N[C@H](C(=O)N[C@H]2Cc3ccc(F)c(C(=O)O)c3OB2O)c2ccc(O)c(O)c2Cl)C(=O)C1=O (single isomer, unassigned) [Example 28]",8 to 16 mg/L,32 to 64 mg/L,2 to 4 mg/L,2 to 4 mg/L,32 to 64 mg/L,0.5 to 1 mg/L,32 to 64 mg/L,32 to 64 mg/L,2 to 4 mg/L,8 to 16 mg/L,32 to 64 mg/L,0.25 mg/L,0.5 to 1 mg/L,32 to 64 mg/L,–,–,–
"O=C(O)c1c(F)ccc2c1OB(O)[C@@H](NC(=O)[C@H](NC(=O)N1CCNC1=O)c1c(F)cc(O)c(O)c1Cl)C2 (single isomer, unassigned) [Example 34]",0.5 to 1 mg/L,0.5 to 1 mg/L,0.5 to 1 mg/L,–,2 to 4 mg/L,–,0.5 to 1 mg/L,0.5 to 1 mg/L,0.5 to 1 mg/L,–,32 to 64 mg/L,0.25 mg/L,0.25 mg/L,0.25 mg/L,0.5 to 1 mg/L,0.25 mg/L,0.25 mg/L
"CS(=O)(=O)N1CCN(C(=O)N[C@@H](C(=O)N[C@H]2Cc3ccc(F)c(C(=O)O)c3OB2O)c2c(F)cc(O)c(O)c2Cl)C1=O (single isomer, unassigned) [Example 35]",0.5 to 1 mg/L,0.25 mg/L,0.5 to 1 mg/L,–,2 to 4 mg/L,–,0.5 to 1 mg/L,0.5 to 1 mg/L,0.5 to 1 mg/L,–,32 to 64 mg/L,0.25 mg/L,0.25 mg/L,0.25 mg/L,0.5 to 1 mg/L,0.25 mg/L,0.25 mg/L
"NCCN1CCN(C(=O)N[C@@H](C(=O)N[C@H]2Cc3ccc(F)c(C(=O)O)c3OB2O)c2c(F)cc(O)c(O)c2F)C(=O)C1=O (single isomer, unassigned) [Example 40]",2 to 4 mg/L,0.5 to 1 mg/L,8 to 16 mg/L,–,8 to 16 mg/L,–,2 to 4 mg/L,2 to 4 mg/L,8 to 16 mg/L,–,2 to 4 mg/L,0.25 mg/L,0.25 mg/L,2 to 4 mg/L,2 to 4 mg/L,0.25 mg/L,0.5 to 1 mg/L
"NCCCN1CCN(C(=O)N[C@@H](C(=O)N[C@H]2Cc3ccc(F)c(C(=O)O)c3OB2O)c2c(F)cc(O)c(O)c2F)C(=O)C1=O (single isomer, unassigned) [Example 41]",2 to 4 mg/L,0.5 to 1 mg/L,2 to 4 mg/L,–,2 to 4 mg/L,–,2 to 4 mg/L,2 to 4 mg/L,0.25 mg/L,–,2 to 4 mg/L,0.25 mg/L,0.25 mg/L,0.5 to 1 mg/L,2 to 4 mg/L,0.25 mg/L,0.5 to 1 mg/L
"CCN1CCN(C(=O)NC(C(=O)N[C@H]2Cc3cccc(C(=O)O)c3OB2O)c2ccc(O)c(NC(=O)c3ccc(O)c(O)c3Cl)c2)C(=O)C1=O (stereo partly drawn) [Example 74, (3R)-3-(2-(3-(2-chloro-3,4-dihydroxybenzamido)-4-hydroxyphenyl)-2-(4-ethyl-2,3-dioxopiperazine-1-carboxamido)acetamido)-2-hydroxy-3,4-dihydro-2H-benzo[e][1,2]oxaborinine-8-carboxylic acid]",2 to 4 mg/L,32 to 64 mg/L,0.5 to 1 mg/L,–,–,–,32 to 64 mg/L,32 to 64 mg/L,32 to 64 mg/L,–,0.5 to 1 mg/L,0.25 mg/L,0.5 to 1 mg/L,32 to 64 mg/L,8 to 16 mg/L,32 to 64 mg/L,32 to 64 mg/L
"CC(C)(C)[C@@H](NC(=O)N1CCN(CCNC(=O)c2c(F)cc(O)c(O)c2Cl)C(=O)C1=O)C(=O)N[C@H]1Cc2ccc(F)c(C(=O)O)c2OB1O [Example 80, (R)-3-((R)-2-(4-(2-(2-chloro-6-fluoro-3,4-dihydroxybenzamido)ethyl)-2,3-dioxopiperazine-1-carboxamido)-3,3-dimethylbutanamido)-7-fluoro-2-hydroxy-3,4-dihydro-2H-benzo[e][1,2]oxaborinine-8-carboxylic acid]",0.5 to 1 mg/L,32 to 64 mg/L,2 to 4 mg/L,–,–,–,8 to 16 mg/L,8 to 16 mg/L,2 to 4 mg/L,–,2 to 4 mg/L,0.25 mg/L,0.25 mg/L,8 to 16 mg/L,2 to 4 mg/L,0.5 to 1 mg/L,2 to 4 mg/L
